Measured values reported in PubChem BioAssay (NCI).
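Protocol summary: plate cells (96-well), add compound at 5 concentrations, incubate 48 h, interpolate endpoints linearly. GI50 marks 50% less growth. TGI denotes the concentration required for complete inhibition of growth.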

Key:
Assay in all cases: NCI tumour cell line growth inhibition, 48 h
HL-60(TB) leukemia = system: HL-60(TB) leukemia
M14 melanoma = system: M14 melanoma
IGROV1 ovarian = system: IGROV1 ovarian
SNB-75 CNS = system: SNB-75 CNS
SW-620 colon = system: SW-620 colon
OVCAR-5 ovarian = system: OVCAR-5 ovarian
UACC-257 melanoma = system: UACC-257 melanoma
CAKI-1 renal = system: CAKI-1 renal
OVCAR-3 ovarian = system: OVCAR-3 ovarian
T-47D breast = system: T-47D breast

Row | SMILES | TGI (HL-60(TB) leukemia) | TGI (M14 melanoma) | TGI (IGROV1 ovarian) | TGI (SNB-75 CNS) | TGI (SW-620 colon) | TGI (OVCAR-5 ovarian) | TGI (UACC-257 melanoma) | TGI (CAKI-1 renal) | TGI (OVCAR-3 ovarian) | TGI (T-47D breast) | GI50 (HL-60(TB) leukemia) | GI50 (M14 melanoma) | GI50 (IGROV1 ovarian) | GI50 (SNB-75 CNS) | GI50 (SW-620 colon) | GI50 (T-47D breast) | GI50 (OVCAR-5 ovarian) | GI50 (UACC-257 melanoma) | GI50 (CAKI-1 renal) | GI50 (OVCAR-3 ovarian)
1 | CSC(=NC(=O)c1ccccc1Cl)SCCSC(=NC(=O)c1ccccc1Cl)SC | > 100 µM | > 100 µM | > 100 µM | > 100 µM | > 100 µM | > 100 µM | > 100 µM | > 100 µM | > 100 µM |  |  |  |  |  |  |  |  |  |  | 
2 | Cc1cc(OCc2nnc3n2S(=O)(=O)c2ccccc2N3C)ccc1Cl | 55.1 µM | > 100 µM | > 100 µM |  | > 100 µM | > 100 µM | > 100 µM | > 100 µM | 57.2 µM | > 100 µM |  |  |  |  |  |  |  |  |  | 
3 | O=C(C[n+]1ccccc1)N/N=C(/CCC(=O)N(Cc1ccccc1)Cc1ccccc1)CC(=O)c1ccccc1 | > 100 µM | > 100 µM | > 100 µM | > 100 µM | > 100 µM | > 100 µM | > 100 µM | > 100 µM | > 100 µM |  |  |  |  |  |  |  |  |  |  | 
4 | C(=N\Nc1ncc(-c2cc3cc4c(cc3o2)OCO4)s1)/c1ccco1 | 7.59 µM | 11.6 µM | 8.09 µM | 11.4 µM | 2.48 µM | 8.67 µM | 23.2 µM | 6.69 µM |  | 9.74 µM | 2.7 µM | 2.9 µM | 2.6 µM | 1.86 µM | 0.681 µM | 1.27 µM | 2.71 µM | 3.83 µM | 0.854 µM | 
5 | COc1ccc2cc(-c3cnc4nonc4n3)ccc2c1 | 9.03 µM | 6.38 µM | > 100 µM |  | > 100 µM | > 100 µM | > 100 µM | > 100 µM | 56.9 µM | > 100 µM | 0.803 µM | 1.91 µM | 15.3 µM |  | 1.25 µM | 1.99 µM | 6 µM | 7.89 µM | 2.83 µM | 0.982 µM
6 | NC(=S)N/N=C/c1ccc(OC(=O)COc2cc(Cl)c(Cl)cc2Cl)cn1 | 47.9 µM | 5.75 µM | > 100 µM |  | > 100 µM | > 100 µM | 51.5 µM | > 100 µM | 58.2 µM | > 100 µM | 3.97 µM | 2.38 µM | 7.65 µM |  | 5.75 µM | 2.87 µM | 50.7 µM | 11 µM | 3.97 µM | 3.39 µM
7 | COc1ccc2c(c1)c(-c1nc(-c3cn(C)c4ccncc34)cs1)cn2C | 4.49 µM | 3.29 µM | 3.65 µM | 28 µM | 3.73 µM | 3.53 µM | 3.6 µM | 3.26 µM | 3.77 µM |  | 1.96 µM | 1.7 µM | 1.92 µM | 14.7 µM | 1.96 µM |  | 1.81 µM | 1.9 µM | 1.8 µM | 1.99 µM
8 | [N-]=[N+]=NCN1C(=O)C2C3C=CC(C2C1=O)C1C2C(=O)N(CN=[N+]=[N-])C(=O)C2C31 (stereo unspecified) |  | > 100 µM | > 100 µM |  | > 100 µM |  | > 100 µM | > 100 µM | > 100 µM | > 100 µM |  |  |  |  |  |  |  |  |  | 
